“And” between values parts separate entries of the source, which are not always exact repeats. Equal values may be shown once.
Key:
[1] = system: MDA-MB-468 spheroids; assay: 3D invasion assay; type: cell-based; details: 10^-5 M
Description: Figure 5 A41 decreases growth and invasiveness of TNBC cells in vitro (A) Representative images of RAC-GTP levels (red) in MDA-MB-468 Luc cells in the absence (CTL) and presence of EHT1864, NSC23766, or A41 (1 h at 10 μM) (left). Luciferase (Luc, green) was used to detect the cells. RAC-GTP mean fluorescence intensity was quantified inside the cell area (right) (n = 31–37 cells from 3 independent experiments; ∗p < 0.05, ∗∗∗p < 0.001) (scale bars: 10 μm). […] (C) Quantification of colony number of indicated cancer cell lines in the presence of A41 (10 μM) expressed as the percentage of control in the absence of A41. Results shown are representative of N > 3 independent experiments. (D) Immunoblot analysis and corresponding quantification of AKT and P44/42 expression and phosphorylation (pAKT, p44/42) in MDA-MB-468 Luc cells in the absence (−) and presence of NSC23766 or A41 (1 h at 10^−5 M). […] (E) 3D invasion assay of MDA-MB-468 Luc and cancer-associated fibroblasts (CAFs) and corresponding quantification (scale bars: 200 μm). […]
3D-spheroids were obtained, according the protocol previously described,[62] by re-suspending cells at a concentration of 1.25 × 10^4 cells/ml in 20% Methyl-cellulose/80% DMEM 10% FBS. […] Invasion was monitored by fully automated Dmi6000b Wide Field Fluorescence Microscope (Leica Microsystems, Wetzlar, Germany) during 48h.

[2] = system: TA98; assay: Bacterial cytotoxicity; type: cell-based
Text: Data S2. Bacterial cytotoxicity of A41.
Test Concentration %Effect Cytotoxicity (% of control)

[3] = biological target: Glucocorticoid (Homo sapiens, UniProt P04150); assay: Safety screen; type: binding
Chain of Glucocorticoid (P04150 whole entry): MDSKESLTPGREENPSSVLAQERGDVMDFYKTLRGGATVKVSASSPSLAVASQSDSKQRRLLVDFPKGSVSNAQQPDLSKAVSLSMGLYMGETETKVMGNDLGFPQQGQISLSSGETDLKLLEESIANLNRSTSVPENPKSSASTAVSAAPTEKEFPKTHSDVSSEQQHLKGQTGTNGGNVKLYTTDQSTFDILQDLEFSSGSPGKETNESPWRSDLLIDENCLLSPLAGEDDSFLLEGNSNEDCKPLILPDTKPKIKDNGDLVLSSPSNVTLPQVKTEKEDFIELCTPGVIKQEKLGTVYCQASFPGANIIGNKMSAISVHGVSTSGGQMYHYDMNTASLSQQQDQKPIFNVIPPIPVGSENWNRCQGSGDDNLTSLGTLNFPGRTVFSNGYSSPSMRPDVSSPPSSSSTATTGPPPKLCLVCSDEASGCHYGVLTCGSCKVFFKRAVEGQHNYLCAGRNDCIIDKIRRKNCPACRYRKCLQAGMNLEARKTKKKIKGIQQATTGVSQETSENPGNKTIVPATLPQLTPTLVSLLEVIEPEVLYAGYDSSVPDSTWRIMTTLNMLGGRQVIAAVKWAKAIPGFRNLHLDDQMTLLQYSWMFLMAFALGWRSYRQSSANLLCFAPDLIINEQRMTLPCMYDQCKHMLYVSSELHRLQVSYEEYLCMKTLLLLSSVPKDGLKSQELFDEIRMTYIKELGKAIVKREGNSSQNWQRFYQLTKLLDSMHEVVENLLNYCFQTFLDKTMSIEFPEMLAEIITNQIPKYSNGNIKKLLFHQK
Description: Blood cell counts, kinase profiler, safety screen, bacterial cytotoxicity, Ames, micronucleus assays were performed by the company Eurofins (France).

[4] = biological target: RHOA (Homo sapiens, UniProt P61586); assay: Surface plasmon resonance; type: binding; parameters: purchased Cytoskeleton RC01; details: A41 0 to 25 μM
Chain of RHOA (P61586 whole entry): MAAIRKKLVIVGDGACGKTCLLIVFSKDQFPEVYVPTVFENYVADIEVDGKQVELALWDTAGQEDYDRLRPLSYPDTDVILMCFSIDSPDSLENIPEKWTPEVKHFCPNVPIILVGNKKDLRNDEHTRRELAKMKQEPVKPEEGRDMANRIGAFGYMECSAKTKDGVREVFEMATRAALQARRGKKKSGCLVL
Description: SPR immobilization was performed at 25°C. RAC1, RHOA and CDC42 purified proteins (respectively […] and CD01, Cytoskeleton) were diluted to 5 μg/mL in Na^+ acetate buffer (pH 5.0) and injected into sensor chip CM5 (GE Healthcare) in a Biacore T200 (GE Healthcare) that was activated with NHS/EDC buffer. Approximately 5,000 response units of the purified protein were immobilized on the biosensor chip. Biosensor chips were blocked by an injection of 1 mM ethanolamine (pH 8.5). SPR analysis was performed at 25°C in HBSEP running buffer (5% DMSO) with or without EDTA (20 mM). A41 compound was injected over the RAC1, RHOA or CDC42 functionalized surface in concentration range from 0 to 25μM. Association and dissociation phases were monitored during 60s and 300s, respectively.

SMILES: COc1ccc(OC)c(NS(=O)(=O)c2ccc(NC(=O)CCSc3ccc(C)cc3)cc2)c1 [Compound A41]
- size of the spheroids [1]: not affected
- migration area of spheroids ([1]; 3D collagen gel): reduced the migration area
- %Effect, single replicates (1st, 2nd, 3rd) ([2]; - S9, 1.0E-04 M): 154.6% and 177.5% and 143.7%
- Cytotoxicity (% of control), Mean %Effect ([2]; - S9, 1.0E-04 M): 158.6%
- %Effect, single replicates (1st, 2nd, 3rd) ([2]; - S9, 1.0E-05 M): 82.4% and 76.9% and 77.8%
- Cytotoxicity (% of control), Mean %Effect ([2]; - S9, 1.0E-05 M): 79.0%
- %Effect, single replicates (1st, 2nd, 3rd) ([2]; - S9, 1.2E-06 M): 89.7% and 74.1% and 55.8%
- Cytotoxicity (% of control), Mean %Effect ([2]; - S9, 1.2E-06 M): 73.2%
- %Effect, single replicates (1st, 2nd, 3rd) ([2]; - S9, 2.5E-05 M): 95.2% and 92.4% and 83.3%
- Cytotoxicity (% of control), Mean %Effect ([2]; - S9, 2.5E-05 M): 90.3%
- %Effect, single replicates (1st, 2nd, 3rd) ([2]; - S9, 2.5E-06 M): 80.5% and 83.3% and 82.4%
- Cytotoxicity (% of control), Mean %Effect ([2]; - S9, 2.5E-06 M): 82.0%
- %Effect, single replicates (1st, 2nd, 3rd) ([2]; - S9, 5.0E-05 M): 88.8% and 83.3% and 75.9%
- Cytotoxicity (% of control), Mean %Effect ([2]; - S9, 5.0E-05 M): 82.7%
- %Effect, single replicates (1st, 2nd, 3rd) ([2]; - S9, 5.0E-06 M): 88.8% and 84.2% and 81.4%
- Cytotoxicity (% of control), Mean %Effect ([2]; - S9, 5.0E-06 M): 84.8%
- %Effect, single replicates (1st, 2nd, 3rd) ([2]; - S9, 6.0E-07 M): 92.4% and 82.4% (2×)
- Cytotoxicity (% of control), Mean %Effect ([2]; - S9, 6.0E-07 M): 85.7%
- % inh. [3]: 17%
- binding [4]: No binding was measured

— publication PMC12281424, “A Rac-specific competitive inhibitor of guanine nucleotide binding reduces metastasis in triple-negative breast cancer” (Cell Reports Medicine, 2025)
